For 3 compounds, remaining binding results are on record in patent publication US10870647B2, “Imidazopyridine derivative, method for preparing same, and pharmaceutical composition containing same as active ingredient for preventing or treating cancer” (DAEGU-GYEONGBUK MEDICAL INNOVATION FOUNDATION, priority 2016, dated 2020).

Holding throughout (experiment): Kinase selectivity, scanMAX Kinase assay panel (DiscoverX), % control at 1 uM
Holding throughout (format): binding

The target in assay [1] is T1, scanMAX Kinase assay panel (Homo sapiens, UniProt Q9BUB5).
T1 construct: purchased DiscoverX
T1 sequence (Q9BUB5 whole entry): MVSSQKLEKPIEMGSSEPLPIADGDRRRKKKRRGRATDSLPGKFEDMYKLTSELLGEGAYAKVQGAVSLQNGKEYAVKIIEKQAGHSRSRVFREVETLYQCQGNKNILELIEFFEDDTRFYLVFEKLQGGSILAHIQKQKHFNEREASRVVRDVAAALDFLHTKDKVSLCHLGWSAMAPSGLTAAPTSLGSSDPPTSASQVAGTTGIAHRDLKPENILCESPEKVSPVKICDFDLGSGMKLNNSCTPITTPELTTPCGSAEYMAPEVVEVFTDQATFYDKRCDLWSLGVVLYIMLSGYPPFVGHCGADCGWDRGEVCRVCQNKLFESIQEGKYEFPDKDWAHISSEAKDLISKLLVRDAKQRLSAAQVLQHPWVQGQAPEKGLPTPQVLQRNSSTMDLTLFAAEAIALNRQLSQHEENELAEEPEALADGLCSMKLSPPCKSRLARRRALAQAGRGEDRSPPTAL
Conditions: MKNK1; 1 uM; read-out: Percent Control (%). The method, boiled down: (§1)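 1 uM cpd (DMSO) per kinase; % ctrl = [cpd − pos ctrl]/[neg ctrl − pos ctrl] × 100; hit if <35.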

Assay [2] has as its target T2, scanMAX Kinase assay panel (Homo sapiens, UniProt Q15208).
T2 construct: purchased DiscoverX
Conditions: NDR1; 1 uM; read-out: Percent Control (%). A digest of the protocol: as §1

Assay [3] has as its target T3, scanMAX Kinase assay panel (Homo sapiens, UniProt P51957).
T3 construct: purchased DiscoverX
Conditions: NEK4; 1 uM; read-out: Percent Control (%). A digest of the protocol: as §1

The target in assay [4] is T4, scanMAX Kinase assay panel (Homo sapiens, UniProt O75385).
T4 construct: purchased DiscoverX
T4 sequence (O75385 1-1050): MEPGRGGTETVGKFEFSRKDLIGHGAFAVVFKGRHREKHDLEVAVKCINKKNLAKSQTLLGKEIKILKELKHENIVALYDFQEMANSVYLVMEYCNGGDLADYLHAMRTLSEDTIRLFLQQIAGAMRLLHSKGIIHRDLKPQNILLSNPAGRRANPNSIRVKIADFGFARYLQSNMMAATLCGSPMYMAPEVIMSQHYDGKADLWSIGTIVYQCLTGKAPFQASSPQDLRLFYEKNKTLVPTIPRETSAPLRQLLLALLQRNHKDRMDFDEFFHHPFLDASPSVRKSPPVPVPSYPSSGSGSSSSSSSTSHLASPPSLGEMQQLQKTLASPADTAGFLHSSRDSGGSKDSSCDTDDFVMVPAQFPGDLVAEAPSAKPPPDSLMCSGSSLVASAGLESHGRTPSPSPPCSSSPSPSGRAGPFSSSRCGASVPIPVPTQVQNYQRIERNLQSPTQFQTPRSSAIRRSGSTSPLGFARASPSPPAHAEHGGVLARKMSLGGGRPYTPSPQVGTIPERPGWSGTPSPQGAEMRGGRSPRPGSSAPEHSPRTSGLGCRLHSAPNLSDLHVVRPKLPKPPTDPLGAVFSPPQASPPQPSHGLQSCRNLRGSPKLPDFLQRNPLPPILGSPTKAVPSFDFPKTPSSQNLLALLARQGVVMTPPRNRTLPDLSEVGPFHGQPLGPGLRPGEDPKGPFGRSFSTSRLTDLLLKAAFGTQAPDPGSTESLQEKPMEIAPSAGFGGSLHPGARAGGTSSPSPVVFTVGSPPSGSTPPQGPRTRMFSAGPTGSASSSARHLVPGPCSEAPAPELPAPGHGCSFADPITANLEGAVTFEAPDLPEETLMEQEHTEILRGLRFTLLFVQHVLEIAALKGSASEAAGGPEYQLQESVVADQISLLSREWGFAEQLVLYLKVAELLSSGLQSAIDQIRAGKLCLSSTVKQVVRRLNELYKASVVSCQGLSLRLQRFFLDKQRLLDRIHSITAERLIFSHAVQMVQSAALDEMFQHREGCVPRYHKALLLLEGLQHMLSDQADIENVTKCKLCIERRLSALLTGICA
The conditions noted are these: ULK1; 1 uM; read-out: Percent Control (%). The method, boiled down: as §1

In assay [5] the target is T5, scanMAX Kinase assay panel (Homo sapiens, UniProt Q9HCP0).
T5 construct: purchased DiscoverX
T5 sequence (Q9HCP0 whole entry): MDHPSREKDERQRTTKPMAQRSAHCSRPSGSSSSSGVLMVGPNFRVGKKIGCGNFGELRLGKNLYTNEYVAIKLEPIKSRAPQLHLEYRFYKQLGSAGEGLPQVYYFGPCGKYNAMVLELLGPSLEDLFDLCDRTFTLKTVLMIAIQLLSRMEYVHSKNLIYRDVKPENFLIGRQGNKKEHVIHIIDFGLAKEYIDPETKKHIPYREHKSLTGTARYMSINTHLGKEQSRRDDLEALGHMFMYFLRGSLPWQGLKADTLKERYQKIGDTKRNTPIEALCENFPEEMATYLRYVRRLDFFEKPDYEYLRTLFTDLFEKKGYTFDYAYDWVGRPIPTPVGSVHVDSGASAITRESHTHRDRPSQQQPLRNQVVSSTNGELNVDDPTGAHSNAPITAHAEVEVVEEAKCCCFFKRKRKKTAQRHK
The conditions noted are these: CSNK1G1; 1 uM; read-out: Percent Control (%). A digest of the protocol: as §1

Assay [6] deals with T6, scanMAX Kinase assay panel (Homo sapiens, UniProt P22694).
T6 construct: purchased DiscoverX
The conditions noted are these: PKAC-beta; 1 uM; read-out: Percent Control (%). The method, boiled down: as §1

For assay [7], the target named is T7, scanMAX Kinase assay panel (Homo sapiens, UniProt O96017).
T7 construct: purchased DiscoverX
T7 sequence (O96017 whole entry): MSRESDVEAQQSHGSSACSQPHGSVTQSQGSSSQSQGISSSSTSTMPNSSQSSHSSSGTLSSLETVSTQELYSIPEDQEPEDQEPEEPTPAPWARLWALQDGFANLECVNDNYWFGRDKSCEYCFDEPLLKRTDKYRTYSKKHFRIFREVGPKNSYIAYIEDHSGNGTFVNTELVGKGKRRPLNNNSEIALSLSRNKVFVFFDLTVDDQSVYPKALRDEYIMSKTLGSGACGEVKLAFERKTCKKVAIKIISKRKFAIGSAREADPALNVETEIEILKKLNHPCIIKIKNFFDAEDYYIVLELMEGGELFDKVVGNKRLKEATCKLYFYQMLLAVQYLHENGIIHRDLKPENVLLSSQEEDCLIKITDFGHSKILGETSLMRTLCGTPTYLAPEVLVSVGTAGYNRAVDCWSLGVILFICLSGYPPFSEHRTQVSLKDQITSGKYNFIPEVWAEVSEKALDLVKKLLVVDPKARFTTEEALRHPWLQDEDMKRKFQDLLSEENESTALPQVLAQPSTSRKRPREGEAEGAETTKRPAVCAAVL
The conditions noted are these: CHEK2; 1 uM; read-out: Percent Control (%). The method, boiled down:
as §1

Assay [8] concerns the target T8, scanMAX Kinase assay panel (Homo sapiens, UniProt Q8NI60).
T8 construct: purchased DiscoverX
Conditions: ADCK3; 1 uM; read-out: Percent Control (%). The method, boiled down:
as §1

For assay [9], the target named is T9, scanMAX Kinase assay panel (Homo sapiens, UniProt P00533, L858R/T790M).
T9 construct: purchased DiscoverX
T9 sequence (P00533 25-1210 T790M/L858R): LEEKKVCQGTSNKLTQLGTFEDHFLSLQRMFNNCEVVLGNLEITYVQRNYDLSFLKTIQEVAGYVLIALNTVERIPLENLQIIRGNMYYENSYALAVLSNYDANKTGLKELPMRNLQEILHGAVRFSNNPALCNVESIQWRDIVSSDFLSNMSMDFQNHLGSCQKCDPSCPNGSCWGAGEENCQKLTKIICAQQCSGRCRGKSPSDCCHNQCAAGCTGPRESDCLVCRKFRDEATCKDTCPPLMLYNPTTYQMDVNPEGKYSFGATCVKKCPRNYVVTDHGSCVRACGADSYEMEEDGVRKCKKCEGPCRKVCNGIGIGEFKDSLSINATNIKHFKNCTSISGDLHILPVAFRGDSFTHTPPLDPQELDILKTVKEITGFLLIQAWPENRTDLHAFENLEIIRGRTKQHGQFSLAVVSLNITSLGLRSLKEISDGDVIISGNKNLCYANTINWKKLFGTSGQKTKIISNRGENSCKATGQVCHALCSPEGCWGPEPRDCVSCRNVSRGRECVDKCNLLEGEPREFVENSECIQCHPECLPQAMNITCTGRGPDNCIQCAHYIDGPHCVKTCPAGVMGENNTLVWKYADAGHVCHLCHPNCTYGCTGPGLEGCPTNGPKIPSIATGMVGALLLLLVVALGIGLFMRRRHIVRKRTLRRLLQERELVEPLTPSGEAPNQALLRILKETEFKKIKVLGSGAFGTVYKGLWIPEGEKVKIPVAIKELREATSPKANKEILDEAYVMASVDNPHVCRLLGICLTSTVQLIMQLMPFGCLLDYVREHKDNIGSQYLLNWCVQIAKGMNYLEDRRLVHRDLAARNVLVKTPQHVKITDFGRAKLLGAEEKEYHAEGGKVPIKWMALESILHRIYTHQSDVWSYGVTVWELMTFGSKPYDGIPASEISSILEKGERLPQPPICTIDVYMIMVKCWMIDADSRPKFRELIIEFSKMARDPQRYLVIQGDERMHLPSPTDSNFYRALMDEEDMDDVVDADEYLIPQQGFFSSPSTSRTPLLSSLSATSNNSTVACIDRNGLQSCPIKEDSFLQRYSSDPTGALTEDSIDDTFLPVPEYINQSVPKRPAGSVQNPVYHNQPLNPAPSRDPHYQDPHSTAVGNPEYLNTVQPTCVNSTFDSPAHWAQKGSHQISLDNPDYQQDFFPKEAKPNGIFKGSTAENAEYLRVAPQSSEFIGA
The conditions noted are these: EGFR (L858R, T790M); 1 uM; read-out: Percent Control (%). A digest of the protocol:
as §1

Assay [10] deals with T10, scanMAX Kinase assay panel (Homo sapiens, UniProt P57059).
T10 construct: purchased DiscoverX
The conditions noted are these: SIK; 1 uM; read-out: Percent Control (%). A digest of the protocol:
as §1

T8 sequence (Q8NI60 163-647): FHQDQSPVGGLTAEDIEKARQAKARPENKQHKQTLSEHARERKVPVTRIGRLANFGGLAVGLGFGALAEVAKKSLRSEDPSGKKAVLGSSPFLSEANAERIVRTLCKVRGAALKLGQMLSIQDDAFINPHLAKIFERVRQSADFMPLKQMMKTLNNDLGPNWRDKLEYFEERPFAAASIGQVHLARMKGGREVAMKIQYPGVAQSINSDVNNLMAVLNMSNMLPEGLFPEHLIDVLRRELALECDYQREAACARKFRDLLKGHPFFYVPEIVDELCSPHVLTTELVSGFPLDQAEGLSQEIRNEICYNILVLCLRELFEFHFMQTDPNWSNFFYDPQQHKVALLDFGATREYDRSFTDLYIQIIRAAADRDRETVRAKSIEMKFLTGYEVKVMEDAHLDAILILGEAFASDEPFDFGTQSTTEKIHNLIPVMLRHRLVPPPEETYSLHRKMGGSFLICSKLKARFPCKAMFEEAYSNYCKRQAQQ
T3 sequence (P51957 whole entry): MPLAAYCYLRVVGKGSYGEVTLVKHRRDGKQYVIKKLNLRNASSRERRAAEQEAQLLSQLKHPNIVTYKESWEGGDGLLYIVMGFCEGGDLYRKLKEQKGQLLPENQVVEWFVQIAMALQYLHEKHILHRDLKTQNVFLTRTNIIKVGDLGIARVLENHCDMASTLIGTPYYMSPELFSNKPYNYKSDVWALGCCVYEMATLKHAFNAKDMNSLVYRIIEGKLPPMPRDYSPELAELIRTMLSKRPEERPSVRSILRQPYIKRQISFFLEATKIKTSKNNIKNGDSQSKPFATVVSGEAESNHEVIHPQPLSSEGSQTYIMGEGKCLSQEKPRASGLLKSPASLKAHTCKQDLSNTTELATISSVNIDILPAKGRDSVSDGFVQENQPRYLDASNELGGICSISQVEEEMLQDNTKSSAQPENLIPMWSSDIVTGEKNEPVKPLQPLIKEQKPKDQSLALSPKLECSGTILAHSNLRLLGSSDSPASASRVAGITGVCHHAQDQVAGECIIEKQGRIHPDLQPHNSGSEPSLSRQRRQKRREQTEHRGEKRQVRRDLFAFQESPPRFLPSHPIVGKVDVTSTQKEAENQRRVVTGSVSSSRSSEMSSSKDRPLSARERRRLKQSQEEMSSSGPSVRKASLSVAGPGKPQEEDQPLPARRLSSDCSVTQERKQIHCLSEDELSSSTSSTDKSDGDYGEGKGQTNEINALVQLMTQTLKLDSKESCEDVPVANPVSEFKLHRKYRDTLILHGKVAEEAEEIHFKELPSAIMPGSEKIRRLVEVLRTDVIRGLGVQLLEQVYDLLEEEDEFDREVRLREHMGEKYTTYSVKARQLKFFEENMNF
T2 sequence (Q15208 whole entry): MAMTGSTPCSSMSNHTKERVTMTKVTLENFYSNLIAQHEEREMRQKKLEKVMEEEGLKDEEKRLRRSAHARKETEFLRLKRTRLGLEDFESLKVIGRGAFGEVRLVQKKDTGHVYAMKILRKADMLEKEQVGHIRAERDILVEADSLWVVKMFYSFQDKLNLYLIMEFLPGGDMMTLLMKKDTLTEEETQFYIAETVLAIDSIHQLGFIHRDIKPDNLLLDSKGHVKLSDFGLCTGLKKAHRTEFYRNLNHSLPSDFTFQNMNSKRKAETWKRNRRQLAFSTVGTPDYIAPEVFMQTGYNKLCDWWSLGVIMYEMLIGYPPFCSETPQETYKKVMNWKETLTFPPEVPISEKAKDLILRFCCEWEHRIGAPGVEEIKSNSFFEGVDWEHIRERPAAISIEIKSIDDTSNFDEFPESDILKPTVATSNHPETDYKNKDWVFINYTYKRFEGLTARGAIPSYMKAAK

Consider `Cc1ccc(C(=O)Nc2ccc(CN3CCN(C)CC3)c(C(F)(F)F)c2)cc1C#Cc1cnc2c(Nc3cnn(C)c3)cccn12` [Example 1, 4-methyl-3-((8-((1-methyl-1H-pyrazol-4-yl)amino)imidazo[1,2-a]pyridin-3-yl)ethynyl)-N-(4-((4-methylpiperazin-1-yl)methyl)-3-(trifluoromethyl)phenyl)benzamide], for which the remaining binding at 1 µM in assay [1] was determined as 47%; in [2], 56%; in assay [3], 9%; in assay [4], 68%; in assay [5], 73%; in [6], 34%. Moreover, the remaining binding at 1 µM in [7] stood at 34%; in assay [8], 100%; in assay [9], 17%; in assay [10], 0%.

Turning to `Cc1cn(-c2cc(NC(=O)c3ccc(C)c(C#Cc4cnc5c(Nc6cnn(C)c6)cccn45)c3)cc(C(F)(F)F)c2)cn1` [Example 12, 4-methyl-N-(3-(4-methyl-1H-imidazol-1-yl)-5-(trifluoromethyl)phenyl)-3-((8-((1-methyl-1H-pyrazol-4-yl)amino)imidazo[1,2-a]pyridin-3-yl)ethynyl)benzamide], the remaining binding at 1 µM in [1] was determined as 100%; in assay [2] it was 98%; in assay [3], 61%; in [4] it was 100%; in assay [5], 95%; in assay [6], 87%. Moreover, the remaining binding at 1 µM in [7] stood at 84%; in [8], 93%; in assay [9], 69%; in assay [10], 5%.

Turning to `Cc1ccc(NC(=O)C2(C(=O)Nc3ccc(F)cc3)CC2)cc1C#Cc1cnc2c(Nc3cnn(C(C)C)c3)cccn12` [Example 78], the remaining binding at 1 µM in [1] worked out at 100%; in [2], 83%; in assay [3] it was 100%; in assay [4] it was 100%; in [5], 100%; in assay [6], 98%. The remaining binding at 1 µM in assay [7] worked out at 91%; in [8], 100%; in [9], 84%; in [10], 25%.
